Measured values as given in article PMC6013247, “Preclinical characterization of INCB053914, a novel pan-PIM kinase inhibitor, alone and in combination with anticancer agents, in models of hematologic malignancies” (PLoS ONE, 2018).

Tested on: PIM2 expression in PBMCs
Test: PIM2 expression in PBMCs from whole blood of patients with AML treated ex vivo
Type: cell-based
Conditions: Homo sapiens, PBMC, read-out: EC50 for increased PIM2 expression, whole blood treated overnight ex vivo
Method: The effects of INCB053914 on pBAD, pp70S6K, and p4E-BP1 levels and on the expression of PIM isozymes also were assessed ex vivo in primary bone marrow blasts (Stem Cell and Xenograft Core, University of Pennsylvania, Philadelphia, Pennsylvania) or in peripheral blood mononuclear cells (PBMCs) derived from whole blood samples obtained with informed written consent from adult patients with AML enrolled in an ongoing phase 1/2 dose-escalation trial, which was conducted in accordance with the study protocol approved by the respective institutional review boards or independent ethics committees. Only samples initially containing >90% viable cells were used (assessed by Trypan Blue staining). Immediately after thawing, the blasts were cultured in RPMI + 10% FBS with INCB053914 for 2 hours at 37°C, before lysis. For determinations of PIM2 expression in PBMCs, whole blood samples were treated overnight with increasing concentrations of INCB053914; total PBMCs were isolated by Ficoll-Paque density gradient centrifugation before lysis. The levels of PIM isozymes and phosphoproteins in cell lysates were detected by Western blotting using the same primary antibodies as above.

C[C@H]1CN(c2c(NC(=O)c3ccc(F)c(-c4c(F)cccc4F)n3)cnc3c2CC[C@H]3O)C[C@@H](N)[C@@H]1O.O=P(O)(O)O [INCB053914, N-((R)-4-((3R,4R,5S)-3-amino-4-hydroxy-5-methylpiperidin-1-yl)-7-hydroxy-6,7-dihydro-5H-cyclopenta[b]pyridin-3-yl)-6-(2,6-difluorophenyl)-5-fluoropicolinamide phosphate]
EC50: 116 nM
